Results on five compounds are retold here after patent US8067424B2, “Selective inhibitors for cyclin-dependent kinases” (Emory University, priority 2007, dated 2011).

Read-outs that look alike come from different tables or passages of the source.

Holding throughout (format): biochemical
The target of one test is T1, p38σ MAPK (Homo sapiens, UniProt O15264).
T1 sequence (O15264 1-365): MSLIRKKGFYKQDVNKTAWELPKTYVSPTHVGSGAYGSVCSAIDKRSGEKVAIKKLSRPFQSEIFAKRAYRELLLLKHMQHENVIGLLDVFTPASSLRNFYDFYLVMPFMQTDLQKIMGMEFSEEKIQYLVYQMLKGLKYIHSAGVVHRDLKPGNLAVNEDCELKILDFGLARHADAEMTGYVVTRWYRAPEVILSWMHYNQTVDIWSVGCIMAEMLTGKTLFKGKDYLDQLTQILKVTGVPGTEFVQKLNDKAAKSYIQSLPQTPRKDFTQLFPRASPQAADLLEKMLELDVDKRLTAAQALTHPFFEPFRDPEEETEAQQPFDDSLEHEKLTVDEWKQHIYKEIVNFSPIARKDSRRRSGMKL
The experiment in a line: Kinase screen: SAPK 4/p38d assay. On the procedure: (§1) Generally, the same procedure was used for all assays. Since the total assay volume was 25.5 microliters, 0.5 microliters of inhibitors at 51× assay concentration were added to the plates before any other addition.
(§2) The basic procedure was to add 0.5 microliters inhibitor/control in DMSO to plate. Fifteen microliters of enzyme/substrate/buffer mix were added and incubated for 5 min. Ten microliters MgATP at the relevant concentration were added and incubated for 30 min. The assay was stopped by adding 5 microliters of 3% orthophosphoric acid. The assay was transferred to a p81 filter plate and read in a scintillation counter of 30 sec/well. Note that this assay procedure was not followed for MKK1, which instead involved a two-step assay, and PKC alpha, which required the addition of lipid vesicles.
SAPK 4/p38d assay: SAPK 4/p38d (5-20 mU diluted in 50 mM Tris pH 7.5, 0.1 mM EGTA, 0.1 mM Na3VO4, 0.1% b-mercaptoethanol, 1 mg/ml BSA) was assayed against MBP in a final volume of 25.5 μl containing 25 mM Tris pH 7.5, 0.1 mM EGTA, 0.33 mg/ml MBP, 10 mM magnesium acetate and 0.005 mM [33P-g-ATP] (50-1000 cpm/pmole) and incubated for 30 min at room temperature. Assays were stopped by addition of 5 μl of 0.5 M (3%) orthophosphoric acid and then harvested onto P81 Unifilter plates with a wash buffer of 50 mM orthophosphoric acid.

A further test addresses T2, p38γ MAPK (Homo sapiens, UniProt P53778).
T2 sequence (P53778 1-367): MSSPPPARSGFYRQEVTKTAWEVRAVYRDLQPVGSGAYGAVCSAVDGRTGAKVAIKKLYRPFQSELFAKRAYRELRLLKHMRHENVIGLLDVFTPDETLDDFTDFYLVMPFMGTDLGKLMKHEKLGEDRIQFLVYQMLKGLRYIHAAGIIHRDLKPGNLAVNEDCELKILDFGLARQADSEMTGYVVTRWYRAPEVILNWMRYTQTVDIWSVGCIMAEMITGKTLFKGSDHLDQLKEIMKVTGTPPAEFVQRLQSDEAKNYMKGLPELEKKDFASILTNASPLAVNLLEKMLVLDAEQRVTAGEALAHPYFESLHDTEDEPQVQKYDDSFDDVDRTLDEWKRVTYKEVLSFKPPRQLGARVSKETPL
In words: Kinase screen: SAPK 3/p38g assay. On the procedure:
as §1, §2
SAPK 3/p38g assay: SAPK 3/p38g (5-20 mU diluted in 50 mM Tris pH 7.5, 0.1 mM EGTA, 0.1 mM Na3VO4, 0.1% b-mercaptoethanol, 1 mg/ml BSA) was assayed against MBP in a final volume of 25.5 μl containing 25 mM Tris pH 7.5, 0.1 mM EGTA, 0.33 mg/ml MBP, 10 mM magnesium acetate and 0.005 mM [33P-g-ATP] (50-1000 cpm/pmole) and incubated for 30 min at room temperature. Assays were stopped by addition of 5 μl of 0.5 M (3%) orthophosphoric acid and then harvested onto P81 Unifilter plates with a wash buffer of 50 mM orthophosphoric acid.

Another test deals with P38β MAPK (Homo sapiens, UniProt Q15759). The experiment in a line: Kinase screen: SAPK 2b/p38β2 assay. On the procedure: as §1, §2
SAPK 2b/p38β2 assay: SAPK 2b/p38β2 (5-20 mU diluted in 50 mM Tris pH 7.5, 0.1 mM EGTA, 0.1 mM Na3VO4, 0.1% b-mercaptoethanol, 1 mg/ml BSA) was assayed against MBP in a final volume of 25.5 μl containing 25 mM Tris pH 7.5, 0.1 mM EGTA, 0.33 mg/ml MBP, 10 mM magnesium acetate and 0.02 mM [33P-g-ATP] (50-1000 cpm/pmole) and incubated for 30 min at room temperature. Assays were stopped by addition of 5 μl of 0.5 M (3%) orthophosphoric acid and then harvested onto P81 Unifilter plates with a wash buffer of 50 mM orthophosphoric acid.

Another test addresses EFK2 (Homo sapiens, UniProt O00418). The experiment in a line: Kinase screen: EF2K assay. On the procedure:
as §1, §2
EF2K assay: EF2K (5-20 mU diluted in 50 mM Hepes pH 6.6, 0.1% b-mercaptoethanol, 1 mg/ml BSA) was assayed against a substrate peptide ([…]) (SEQ ID NO: 27) in a final volume of 25.5 μl containing 50 mM Hepes pH 6.6, 0.2 mM CaCl2, 0.3 μM Calmodulin, 0.05% b-mercaptoethanol, 300 μM substrate peptide, 10 mM magnesium acetate and 0.005 mM [33P-g-ATP] (50-1000 cpm/pmole) and incubated for 30 min at room temperature. Assays were stopped by addition of 5 μl of 0.5 M (3%) orthophosphoric acid and then harvested onto P81 Unifilter plates with a wash buffer of 50 mM orthophosphoric acid.

A further test has as its target PKBα (Homo sapiens, UniProt P31749, S473D). The experiment in a line: Kinase screen: APH-PKBa-S473D assay. On the procedure:
as §1, §2
APH-PKBa-S473D assay: APH-PKBa-S473D (5-20 mU diluted in 50 mM Tris pH 7.5, 0.1 mM EGTA, 0.1% b-mercaptoethanol, 1 mg/ml BSA) was assayed against a modified Crosstide peptide […] (SEQ ID NO: 4) in a final volume of 25.5 μl containing 50 mM Tris pH 7.5, 0.05% b-mercaptoethanol, 30 μM substrate peptide, 10 mM magnesium acetate and 0.005 mM [33P-g-ATP] (50-1000 cpm/pmole) and incubated for 30 min at room temperature. Assays were stopped by addition of 5 μl of 0.5 M (3%) orthophosphoric acid and then harvested onto P81 Unifilter plates with a wash buffer of 50 mM orthophosphoric acid.

Where [1] appears, read: 10 micromolar compound, read-out: mean activity remaining (as a percentage of the original activity), p38s MAPK.
The mark [2] stands for this setting: 10 micromolar compound, read-out: mean activity remaining (as a percentage of the original activity), p38g MAPK.
[3] abbreviates: 10 micromolar compound, read-out: mean activity remaining (as a percentage of the original activity), p38b MAPK.
Where [4] appears, read: 10 micromolar compound, read-out: mean activity remaining (as a percentage of the original activity), EFK2.
Where [5] appears, read: 0.5 h, 10 micromolar compound, read-out: mean activity remaining (as a percentage of the original activity), PKBa.

Sequence of P38β MAPK (Q15759 whole entry): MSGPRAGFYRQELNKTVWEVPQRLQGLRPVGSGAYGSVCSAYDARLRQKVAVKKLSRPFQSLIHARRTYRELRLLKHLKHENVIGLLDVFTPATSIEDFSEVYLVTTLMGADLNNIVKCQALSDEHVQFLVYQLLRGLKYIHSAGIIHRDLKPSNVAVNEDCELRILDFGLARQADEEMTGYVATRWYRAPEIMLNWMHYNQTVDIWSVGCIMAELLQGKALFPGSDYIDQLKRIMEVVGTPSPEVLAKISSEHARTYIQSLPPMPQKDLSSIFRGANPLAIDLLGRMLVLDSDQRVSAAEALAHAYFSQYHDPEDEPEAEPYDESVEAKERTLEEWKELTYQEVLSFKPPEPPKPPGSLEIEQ
Sequence of PKBα (P31749 118-480 S473D limits assumed, species assumed): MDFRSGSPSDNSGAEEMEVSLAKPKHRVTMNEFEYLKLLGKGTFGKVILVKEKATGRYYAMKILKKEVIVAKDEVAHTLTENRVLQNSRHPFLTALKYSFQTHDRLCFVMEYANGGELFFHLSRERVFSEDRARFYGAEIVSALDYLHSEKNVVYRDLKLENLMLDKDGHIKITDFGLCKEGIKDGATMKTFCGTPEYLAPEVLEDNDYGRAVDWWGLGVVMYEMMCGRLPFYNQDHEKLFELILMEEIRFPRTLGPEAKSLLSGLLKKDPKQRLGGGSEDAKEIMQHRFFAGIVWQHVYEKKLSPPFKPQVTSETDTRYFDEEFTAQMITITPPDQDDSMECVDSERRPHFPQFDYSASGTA

`CC(C)c1cnn2c(NCc3ccccc3)cc(NCCCCCCCN)nc12` [BS-181]: the remaining activity at 10 µM is 96% on p38σ MAPK (p38σ MAPK, 10 μM, read-out: Mean Remaining Enzyme Activity (%)); 108% at p38γ MAPK (p38γ MAPK, 10 μM, read-out: Mean Remaining Enzyme Activity (%)); 115% on P38β MAPK (P38β MAPK, 10 μM, read-out: Mean Remaining Enzyme Activity (%)); 119% at EFK2 (EFK2, 10 μM, read-out: Mean Remaining Enzyme Activity (%)); 82% at PKBα (PKBα, 10 μM, read-out: Mean Remaining Enzyme Activity (%)).
Consider `C=C[C@H](CO)Nc1cc(NCc2ccccc2)n2ncc(C(C)C)c2n1` [ICEC0065], for which the remaining activity at 10 µM on p38σ MAPK (setting [1]) came to 86%; at p38γ MAPK (setting [2]), 108%; on P38β MAPK (setting [3]) it was 104%; at EFK2 (setting [4]), 97%; on PKBα (setting [5]), 116%.
As for `CC(C)c1cnn2c(NCc3ccccc3)cc(N[C@@H](CO)[C@H](O)CO)nc12` [ICEC0318, (3S)-3-(7-(Benzylamino)-3-isopropylpyrazolo[1,5-a]pyrimidin-5-ylamino)butane-1,2,4-triol], the remaining activity at 10 µM is 86% at p38σ MAPK (setting [1]); 112% at p38γ MAPK (setting [2]); 94% at P38β MAPK (setting [3]); 92% at EFK2 (setting [4]); 103% at PKBα (setting [5]).
On to `CC(C)c1cnn2c(NCc3ccccc3F)cc(NCCCCCN)nc12` [ICEC-0232], for which the “mean activity remaining (as a percentage of the original activity), p38s MAPK” value at p38σ MAPK (10 micromolar compound) was 78%. Also, the “mean activity remaining (as a percentage of the original activity), p38g MAPK” value on p38γ MAPK (10 micromolar compound) amounted to 91%. Also, the “mean activity remaining (as a percentage of the original activity), p38b MAPK” value on P38β MAPK (10 micromolar compound) was 102%. In addition, the “mean activity remaining (as a percentage of the original activity), EFK2” value at EFK2 (10 micromolar compound) was 98%. At PKBα (10 micromolar compound), the “mean activity remaining (as a percentage of the original activity), PKBa” value came out at 75%.
Consider `CC[C@H](CO)Nc1cc(NCc2ccccc2)n2ncc(C(C)C)c2n1` [ICEC0067], for which the remaining activity at 10 µM on p38σ MAPK (setting [1]) worked out at 86%; at p38γ MAPK (setting [2]), 82%; on P38β MAPK (setting [3]), 98%; at EFK2 (setting [4]), 95%; on PKBα (setting [5]) it was 109%.
